The results in this text go back to patent publication US4458076A, “3-(4-Piperidinyl)-1,2-benzisothiazoles” (Hoechst-Roussel Pharmaceuticals, priority 1983, dated 1984).

Like-named read-outs stand apart in the source and are kept apart here.

Assay [1] concerns phenyl-p-quinone writhing. Put plainly: analgetic activity in the phenyl-p-quinone writhing assay. In kind it is in vivo. The conditions noted are these: Mus musculus, sc; subcutaneous dose effecting an approximately 50% inhibition of writhing in mice. From the text:
3-(4-piperidinyl)-1,2-benzisothiazoles of the present invention are useful as analgetics due to their ability to alleviate pain in mammals. […] Exptl. Biol Med., 95 729 (1957)]. Thus, for instance, the subcutaneous dose effecting an approximately 50% inhibition of writhing (ED50) in mice produced in this assay is as shown in Table 2.
On the technique in general: An intraperitoneal irritant provokes the stretching counted in writhing tests.

Assay [2] concerns apomorphine-induced climbing. Put plainly: antipsychotic activity in the climbing mice assay (apomorphine-induced climbing). The assay is classed as in vivo, CK-1 male mice. The conditions noted are these: Mus musculus, ip, inhibition of climbing, compound intraperitoneally 30 minutes prior to apomorphine 1.5 mg/kg subcutaneously, readings at 10, 20 and 30 minutes, linear regression. As to the method: The subject CK-1 male mice (23-27 grams) are group-housed under standard laboratory conditions. The mice are individually placed in wire mesh stick cages (4"×4" by 10") and are allowed one hour for adaptation and exploration of the new environment.
For evaluation of climbing, 3 readings are taken at 10, 20 and 30 minutes after apomorphine administration according to the following scale: […]
Mice consistently climbing before the injection of apormorphine will be discarded.
With full-developed apomorphine climbing, the animals are hanging on to the cage walls, rather motionless, over longer periods of time. By contrast, climbs due to mere motor stimulation usually only last a few seconds.

In turn, `CN1CCC(c2nsc3ccccc23)CC1` [3-(1-Methyl-4-piperidinyl)-1,2-benzisothiazole] came in with an ED50 in assay [1] of 0.73 mg/kg.

As to `c1ccc2c(C3CCNCC3)nsc2c1` [3-(4-piperidinyl)-1,2-benzisothiazole], in assay [1], the ED50 amounted to 2.1 mg/kg.

In assay [2], `O=c1[nH]c2ccccc2n1CCCN1CCC(c2nsc3ccccc23)CC1` [3-[1-(1,3-Dihydro-2-oxo-2H-benzimidazol-1-ylpropyl)-4-piperidinyl]-1,2-benzisothiazole] returned an ED50 of 0.32 mg/kg.

With `Fc1ccc2c(CCCN3CCC(c4nsc5ccccc45)CC3)noc2c1` [3-[1-(6-Fluoro-1,2-benzisoxazole-3-propyl)-4-piperidinyl]-1,2-benzisothiazole], the ED50 in assay [1] worked out at 0.3 mg/kg; in assay [2] it was 0.17 mg/kg.

As to `c1ccc2c(C3CCN(CC4CC4)CC3)nsc2c1` [3-{1-(cyclopropylmethyl)-4-piperidinyl}-1,2-benzisothiazole], the figures for the ED50 in assay [1] and in assay [2] were 0.07 mg/kg and 5.8 mg/kg, respectively.

The compound `Fc1ccc(C(CCCN2CCC(c3nsc4ccccc34)CC2)c2ccc(F)cc2)cc1` [3-{1-[4,4-bis-(4-Fluorophenyl)-1-butyl]-4-piperidinyl}-1,2-benzisothiazole] returned an ED50 in assay [2] of 3.3 mg/kg.

Turning to `c1ccc(CCN2CCC(c3nsc4ccccc34)CC2)cc1` [3-{1-[Phenethyl]-4-piperidinyl}-1,2-benzisothiazole], the ED50 in assay [1] amounted to 0.2 mg/kg; in assay [2], 7 mg/kg.

In assay [2], `Cc1[nH]c2ccccc2c1CCCN1CCC(c2nsc3ccccc23)CC1` [3-{3-[4-(1,2-benzisothiazol-3-yl)piperidinyl]propyl}-2-methyl indole] had an ED50 of 0.17 mg/kg.

For the compound `O=C(CCCN1CCC(O)(c2ccc(Cl)cc2)CC1)c1ccc(F)cc1` [haloperidol, reference compound], the ED50 in assay [2] (read-out: ANT[…] (ED50 mg/kg)) came to 0.11 mg/kg.

`CC(C)=CCN1CCC2(C)c3cc(O)ccc3CC1C2C` (centres unmarked) [pentazocine, reference compound] showed an ED50 in assay [1] of 1.3 mg/kg.

The compound `CCC(=O)O[C@](Cc1ccccc1)(c1ccccc1)[C@H](C)CN(C)C` [propoxyphene, reference compound] showed an ED50 in assay [1] of 3.9 mg/kg.
